According to ChEMBL document CHEMBL4665742 (J Nat Prod, 2020):
The source made the active and inactive calls. No cut-off for these calls is given here.

Legend:
SK-N-FI [1] = experiment: Antiproliferative activity against human SK-N-FI cells after 24 hrs; assay type: functional
SK-N-AS [2] = experiment: Antiproliferative activity against human SK-N-AS cells after 24 hrs; assay type: functional
SK-N-BE(2)-M17 [3] = experiment: Antiproliferative activity against human SK-N-BE(2)-M17 cells after 24 hrs; assay type: functional
[4] = (§1) Antiproliferative activity against human Kelly cells after 24 hrs; assay type: functional; conditions: read-out: ED50 (the source's name)
Kelly [5] = experiment: as §1; assay type: functional
SK-N-FI [6] = experiment: Induction of apoptosis in human SK-N-FI cells assessed as PARP cleavage at 12.5 to 50 uM after 6 to 24 hrs by […]; assay type: functional, cell-based; conditions: dose microM 12.5-50, time hrs 6-24
SK-N-AS [7] = experiment: Induction of apoptosis in human SK-N-AS cells assessed as PARP cleavage at 12.5 to 50 uM after 6 to 24 hrs by […]; assay type: functional, cell-based; conditions: dose microM 12.5-50, time hrs 6-24
SK-N-BE(2)-M17 [8] = experiment: Induction of apoptosis in human SK-N-BE(2)-M17 cells assessed as PARP cleavage at 12.5 to 50 uM after 6 to 24 hrs by […]; assay type: functional, cell-based; conditions: dose microM 12.5-50, time hrs 6-24
Kelly [9] = experiment: Induction of apoptosis in human Kelly cells assessed as PARP cleavage at 12.5 to 50 uM after 6 to 24 hrs by […]; assay type: functional, cell-based; conditions: dose microM 12.5-50, time hrs 6-24
[10] = read-out: ED50 (the source's name)

Row | EC50 (SK-N-FI [1]; [10]) [µM] | EC50 (SK-N-AS [2]; [10]) [µM] | EC50 (SK-N-BE(2)-M17 [3]; [10]) [µM] | Structure (SMILES) | Activity (SK-N-FI [1]) | Activity (SK-N-AS [2]) | Activity (SK-N-BE(2)-M17 [3]) | EC50 [4] [µM] | Activity (Kelly [5]) | Activity (SK-N-FI [6]) | Activity (SK-N-AS [7]) | Activity (SK-N-BE(2)-M17 [8]) | Activity (Kelly [9])
1 |  |  |  | NCCCC(N)(C(=O)O)C(F)F (stereo not given) | Dose-dependent effect | Dose-dependent effect | Dose-dependent effect |  |  |  |  |  | 
2 | 18.1 | 19.5 | 10.3 | C=CCS[S+]([O-])CC=C (stereo not given) [ALLICIN] | Dose-dependent effect | Dose-dependent effect | Dose-dependent effect | 9.21 | Dose-dependent effect | Active | Active | Active | Active
